Our source for the Ki and melting point values is patent US20060235222A1, “Indole-derivative modulators of steroid hormone nuclear receptors” (ELI LILLY AND COMPANY, priority 2003, published 2006).

Data set [1] concerns the target T1, human MR (Homo sapiens, UniProt P08235).
T1 construct: The full length human MR gene is cloned from a human kidney or human brain cDNA library; inferred from own knowledge of the pAcHLT vector (N); made in house; host or cells: Sf9 insect cells (baculovirus)
T1 sequence (P08235 1-984): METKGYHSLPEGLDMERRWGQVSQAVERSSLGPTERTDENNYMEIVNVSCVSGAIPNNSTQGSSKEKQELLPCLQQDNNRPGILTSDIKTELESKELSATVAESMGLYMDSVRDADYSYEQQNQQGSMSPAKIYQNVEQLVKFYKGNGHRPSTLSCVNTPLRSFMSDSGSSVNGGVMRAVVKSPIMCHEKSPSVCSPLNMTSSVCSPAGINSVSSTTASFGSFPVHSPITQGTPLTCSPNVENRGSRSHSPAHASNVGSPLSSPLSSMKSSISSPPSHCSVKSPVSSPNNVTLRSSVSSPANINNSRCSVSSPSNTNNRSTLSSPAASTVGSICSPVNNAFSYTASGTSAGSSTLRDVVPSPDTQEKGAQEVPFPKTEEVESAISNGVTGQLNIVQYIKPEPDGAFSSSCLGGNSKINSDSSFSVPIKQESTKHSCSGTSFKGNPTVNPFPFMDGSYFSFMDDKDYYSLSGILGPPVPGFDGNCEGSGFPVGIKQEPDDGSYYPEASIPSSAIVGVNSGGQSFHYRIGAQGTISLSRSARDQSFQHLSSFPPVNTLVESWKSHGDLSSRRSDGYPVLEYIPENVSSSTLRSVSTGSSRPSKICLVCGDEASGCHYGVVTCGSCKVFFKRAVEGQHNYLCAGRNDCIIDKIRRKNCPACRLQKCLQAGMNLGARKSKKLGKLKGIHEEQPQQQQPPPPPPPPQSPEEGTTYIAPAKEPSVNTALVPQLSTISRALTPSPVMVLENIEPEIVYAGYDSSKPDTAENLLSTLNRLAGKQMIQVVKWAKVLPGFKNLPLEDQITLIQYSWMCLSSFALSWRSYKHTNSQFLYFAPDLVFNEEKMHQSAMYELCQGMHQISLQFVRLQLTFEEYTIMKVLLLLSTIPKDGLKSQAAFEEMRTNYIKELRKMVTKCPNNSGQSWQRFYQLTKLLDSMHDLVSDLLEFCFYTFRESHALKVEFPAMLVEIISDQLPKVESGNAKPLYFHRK
The data set is described as follows: Mineralocorticoid Receptor Binding Assay (Method 1), [3H]-aldosterone competition. Particulars: 0.5 nM [3H]-aldosterone, human MR expressed in Sf9 cells. The method in brief:
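Full-length human MR expressed in Sf9 cells via baculovirus; lysate supernatant (about 20-25 μg protein) incubated with 0.5 nM [3H]-aldosterone and test compound for about 16 h at 4° C. Buffer was Tris/molybdate/phosphate/pyrophosphate with 10% glycerol, pH 7.5; filter-bound complex counted by scintillation.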

The target in data set [2] is T2, human GR (glucocorticoid receptor) (Homo sapiens, UniProt P04150).
T2 construct: expressed in transfected cells; host or cells: 293 cells
T2 sequence (P04150 1-777): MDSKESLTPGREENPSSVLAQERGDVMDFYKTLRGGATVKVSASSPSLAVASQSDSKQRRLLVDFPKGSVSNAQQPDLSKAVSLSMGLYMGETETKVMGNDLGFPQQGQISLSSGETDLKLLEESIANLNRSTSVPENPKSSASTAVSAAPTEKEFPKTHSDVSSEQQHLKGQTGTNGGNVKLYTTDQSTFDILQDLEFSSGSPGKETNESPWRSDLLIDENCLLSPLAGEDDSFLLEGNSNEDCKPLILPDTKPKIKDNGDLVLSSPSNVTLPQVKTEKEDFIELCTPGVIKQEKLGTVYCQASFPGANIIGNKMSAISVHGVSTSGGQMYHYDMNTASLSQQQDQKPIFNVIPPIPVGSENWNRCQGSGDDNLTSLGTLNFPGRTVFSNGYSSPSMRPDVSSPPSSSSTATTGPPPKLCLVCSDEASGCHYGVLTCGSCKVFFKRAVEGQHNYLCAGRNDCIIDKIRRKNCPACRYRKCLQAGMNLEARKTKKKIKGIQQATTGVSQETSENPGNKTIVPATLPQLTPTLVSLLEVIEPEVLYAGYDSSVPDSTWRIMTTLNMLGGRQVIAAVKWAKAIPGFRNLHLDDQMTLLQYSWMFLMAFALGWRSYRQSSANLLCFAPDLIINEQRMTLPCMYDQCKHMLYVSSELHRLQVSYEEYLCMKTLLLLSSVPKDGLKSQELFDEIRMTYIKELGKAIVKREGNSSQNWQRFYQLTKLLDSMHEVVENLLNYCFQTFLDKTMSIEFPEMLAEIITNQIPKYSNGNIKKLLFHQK
The data set is described as follows: Alternative Binding Assay Protocol (Method 2), 293-GR lysate, 3H-dexamethasone competition. The note with it: 0.3 nM 3H-dexamethasone. The method, then:
Alternative Binding Assay Protocol for MR, GR, AR, and PR (Method 2):
Cell lysates from 293 cells overexpressing human GR (glucocorticoid receptor), AR (androgen receptor), MR (mineralocorticoid receptor) or PR (progesterone-receptor) are used for competition binding assays to determine Ki values for test compounds. […] Competing compounds are added at various concentraions in half-log increments. Non-specific binding is determined in the presence of 500 nM dexamethasone for GR binding, 500 nM aldosterone for MR binding, or 500 nM methyltrienolone for AR and PR binding. The binding reaction (140 μl) is incubated for overnight at 4° C., then 70 μl of cold charcoal-dextran buffer (containing per 50 ml of assay buffer, 0.75 g of charcoal and 0.25 g of dextran) is added to each reaction. Plates are mixed 8 minutes on an orbital shaker at 4° C. Plates are then centrifuged at 3,000 rpm at 4° C. for 10 minutes. An aliquot of 120 μl of the mix is transferred to another 96-well plate and 175 μl of Wallac Optiphase “Hisafe 3” scintillation fluid is added to each well. Plates are sealed and shaken vigorously on an orbital shaker. After an incubation of 2 hrs, plates are read in a Wallac Microbeta counter. […] The Kd for ^3H-dexamethasone for GR binding, ^3H-methyltrienolone for AR binding, ^3H-aldosterone for MR binding, or ^3H-methyltrienolone for PR binding, is determined by saturation binding. The IC50 values for compounds are converted to Ki using Cheng-Prusoff equation and the Kd determined by saturation binding assay.

Data set [3] addresses T3, glucocorticoid receptor (Homo sapiens, UniProt P04150).
T3 construct: containing 50-200 ug of A549 cell extract and 1.86 nM; host or cells: A549 human lung epithelial cells
T3 sequence (P04150 1-777): T2 sequence (P04150 1-777)
The data set is described as follows: Glucocorticoid Receptor Binding Assay (Method 1), [3H]-dexamethasone competition, A549 cell extract. The note with it: 1.86 nM [3H]-dexamethasone, read-out: GR Ki (nM) Method 1. The method in brief: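 Receptor source: sonicated extract of human A549 lung epithelial cells in glycerol/Tris-HCl pH 7.2 buffer with sodium molybdate. [3H]-dexamethasone competition run 16 h at 4 °C; unbound radioligand stripped with dextran-coated charcoal (8 min, RT) and receptor-bound radioactivity quantified by scintillation counting.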

The structures appear in SMILES notation.

As usually defined, the Ki is a dissociation constant, usually derived from enzyme kinetics or from competition with a known ligand. The melting point is the temperature, or range, at which the solid turns liquid.

`CCC(CC)(c1ccc2[nH]ncc2c1)c1c[nH]c2c(NS(C)(=O)=O)cccc12` [Example 138, N-{3-[1-Ethyl-1-(1H-indazol-5-yl)-propyl]-1H-indol-7-yl}-methanesulfonamide] showed a melting point of 123 to 128 °C. The same compound showed an inhibitory constant (Ki) in data set [1] of less than 500 nM. Further, the Ki in data set [2] is less than 500 nM.

As for `CCC(CC)(c1ccc2sc(Cl)nc2c1)c1c[nH]c2c(NS(C)(=O)=O)cccc12` [Example 161, N-{3-[1-(2-Chloro-benzothiazol-5-yl)-1-ethyl-propyl]-1H-indol-7-yl}-methanesulfonamide], the melting point fell in the range of 217 to 220 °C. This compound also displayed a Ki in data set [1] of less than 500 nM. Besides, the Ki in data set [2] was less than 500 nM.

In turn, `CCC(CC)(c1ccc2ccn(C(C)=O)c2c1)c1c[nH]c2c(NS(C)(=O)=O)cccc12` [Example 158, N-{3-[1-(1-Acetyl-1H-indol-6-yl)-1-ethyl-propyl]-1H-indol-7-yl}-methanesulfonamide] registered a melting point of 216 to 218 °C. In data set [2], the Ki is less than 500 nM.

The compound `CCC(CC)(c1ccc2ncoc2c1)c1c[nH]c2c(NS(C)(=O)=O)cccc12` [Example 137, N-[3-(1-Benzooxazol-6-yl-1-ethyl-propyl)-1H-indol-7-yl]-methanesulfonamide] showed a melting point of 211 to 213 °C. In data set [1], this compound registered a Ki of less than 500 nM. Moreover, the Ki in data set [2] is less than 500 nM.

`CCC(CC)(c1ccc2nc(Cl)sc2c1)c1c[nH]c2c(NS(C)(=O)=O)cccc12` [Example 148, N-{3-[1-(2-Chloro-benzothiazol-6-yl)-1-ethyl-propyl]-1H-indol-7-yl}-methanesulfonamide] yielded a melting point of 180 to 190 °C. In data set [1], this compound gave a Ki of less than 500 nM. In addition, the Ki in data set [2] was less than 500 nM.

In turn, `CCC(CC)(c1ccc2nc(C)[nH]c2c1)c1c[nH]c2c(NS(C)(=O)=O)cccc12` [Example 154, N-{3-[1-Ethyl-1-(2-methyl-3H-benzoimidazol-5-yl)-propyl]-1H-indol-7-yl}-methanesulfonamide] gave a melting point of 188 to 192 °C. Further, the Ki in data set [2] was less than 500 nM.

Consider `CCC(CC)(c1ccc2c(N)noc2c1)c1c[nH]c2c(NS(C)(=O)=O)cccc12` [Example 143, N-{3-[1-(3-Amino-benzo[d]isoxazol-6-yl)-1-ethyl-propyl]-1H-indol-7-yl}-methanesulfonamide], for which the melting point lay in the range of 95 to 105 °C. The compound also came in with a Ki in data set [1] of less than 500 nM.

Consider `CCC(CC)(c1ccc2cc[nH]c2c1)c1c[nH]c2c(NS(C)(=O)=O)cccc12` [Example 159, N-{3-[1-Ethyl-1-(1H-indol-6-yl)-propyl]-1H-indol-7-yl}-methanesulfonamide], for which the melting point fell in the range of 110 to 115 °C. In addition, the Ki in data set [1] was less than 500 nM.

For the compound `CCC(CC)(c1ccc(F)cc1)c1c[nH]c2c(NS(C)(=O)=O)cccc12` [Example 59, N-{3-[1-Ethyl-1-(4-fluoro-phenyl)-propyl]-1H-indol-7-yl}-methanesulfonamide], the melting point was 137 to 138 °C. This compound also displayed a Ki in data set [1] of less than 500 nM. Also, the Ki in data set [3] was less than 500 nM.

`CCC(CC)(c1ccc2[nH]ccc2c1)c1c[nH]c2c(NS(C)(=O)=O)cccc12` [Example 157, N-{3-[1-Ethyl-1-(1H-indol-5-yl)-propyl]-1H-indol-7-yl}-methanesulfonamide] yielded a melting point of 115 to 120 °C. Besides, the Ki in data set [1] is less than 500 nM.

`CCC(CC)(c1ccc2ncsc2c1)c1c[nH]c2c(NS(C)(=O)=O)cccc12` [Example 149, N-[3-(1-Benzothiazol-6-yl-1-ethyl-propyl)-1H-indol-7-yl]-methanesulfonamide] had a melting point of 117 to 120 °C. The same compound showed a Ki in data set [1] of less than 500 nM.

Turning to `CCC(CC)(c1ccc(F)cc1F)c1c[nH]c2c(NS(C)(=O)=O)cccc12` [Example 62, N-{3-[1-(2,4-Difluoro-phenyl)-1-ethyl-propyl]-1H-indol-7-yl}-methanesulfonamide], the melting point was 144 to 147 °C. In data set [1], this compound returned a Ki of less than 500 nM. In addition, the Ki in data set [3] is less than 500 nM.
